Measured values taken from patent publication US4254135A, “3-Amino-4-hydroxypyrrolidines” (A. H. Robins Company, Inc., priority 1979, dated 1981).
Structures can show the parent of a compound that is named as a salt.

assay: Antitetrabenazine test (blocking of depressant effects induced in mice by intravenous tetrabenazine), antidepressant activity; assay type: in vivo; conditions: Mus musculus, ip, compound intraperitoneally, tetrabenazine intravenously

Going from `CCN1C[C@@H](N(C(=O)c2ccc(Cl)cc2)c2ccccc2)[C@H](OC(=O)c2ccc(Cl)cc2)C1` (relative stereo) [Example 27, Trans-4-chlorobenzoic Acid Ester with 4-[(4-Chlorobenzoyl)(phenyl)amino]-1-ethyl-3-pyrrolidinol (E)-2-butenedioate (3:4)] to `CCN1C[C@@H](O)[C@H](N(C(=O)c2ccc(Cl)cc2)c2ccccc2)C1` (relative stereo) [Example 28, Trans-4-chloro-N-(1-ethyl-4-hydroxy-3-pyrrolindinyl)-N-phenylbenzamide Fumarate], the ED50 rises from 1.1 mg/kg to 2.9 mg/kg (2.6-fold).

First: CCN1C[C@@H](O)[C@H](N(C(=O)c2ccccc2)c2ccccc2)C1 (relative stereo) [Example 29, Trans-N-(1-ethyl-4-hyroxy-3-pyrrolidinyl)-N-phenylbenzamide (E)-2-butenedioate]
Second: CCN1C[C@@H](O)[C@H](N(C(=O)c2ccccc2)C2CCCCC2)C1 (relative stereo) [Example 50, Trans-4-[(benzoyl)(cyclohexyl)amino]-1-ethyl-3-pyrrolidinol Fumarate [1:1]]
The ED50 of the first is 9-fold higher: 2.7 mg/kg for the first, 0.3 mg/kg for the second.
